# In patent US3968233A, “α-Amino-γ-butyrolactones as sedatives” (priority 1975, dated 1976):
# Entries after “also recorded” stand apart in the source; their conditions may differ.
# Key:
# [1] = Spontaneous mobility (light beam interruptions); type: in vivo, mouse
# Description: Several groups of four mice each were placed in an apparatus designed to provide a measure of spontaneous mobility by counting the number of interruptions of a light beam for a period of 10 minutes. After preliminary measurement of mobility, animals were injected with AP-28 (250 and 500 mg/kg) intraperitoneally. Control animals received saline solution. Ten minutes thereafter the measurement of mobility was repeated. Five groups of mice were used as controls and six other groups were treated with varying doses of AP-28.
# [2] = Influence on amphetamine-induced hypermobility; type: in vivo, mouse; conditions: d-amphetamine sulfate 5 mg/kg i.p. + AP-28 250 mg/kg i.p. 15 minutes later
# Description: Six groups of 4 mice each were treated with 5 mg/kg d-amphetamine sulfate by intraperitoneal administration. Six groups of 4 animals each received the same dose of d-amphetamine sulfate plus 250 mg/kg of AP-28 intraperitoneally 15 minutes after d-amphetamine sulfate; six more groups of four animals each received saline solution and served as control animals. […] The number of times each animal crossed the light beam throughout the 10-minute test was noted.
# [3] = Arterial blood pressure; type: in vivo; conditions: single 500 mg/kg oral dose
# Description: The effect of a single 500 mg/kg oral dose of AP-28 was determined on (a) diuresis in water-loaded rats, (b) choleresis, (c) the excretion rate of intravenously-injected bromosulfonphthalein in bile, (d) arterial blood pressure.
# [4] = Clinical trial, 2nd group: strain and anxiety; type: in vivo, human; conditions: 500 to 1500 mg/day
# Description: Clinical trials were performed on three groups of patients, partly hospitalized patients and partly outpatients. It was determined that the effect observed in the experimental pharmacological studies were useful in the treatment of humans as well.
# The dose levels used with these patients varied between 500 and 1500 mg/day, divided into two or three doses which were given during the day.
# [5] = Protective effect against electroshock (MES); conditions: AP-28 250 mg/kg i.p., 10 minutes before electroshock
smiles,measurement,setting,value
"CCCCOC(=O)NC1CCOC1=O (stereo not drawn) [AP-28, α-n-butoxycarbonyl-amino-γ-butyrolactone]",Percent reduction at 2nd measurement,[1]; 250 mg/kg i.p.,68.1%
same,"mobility, percent of the baseline values",[1]; 250 mg/kg i.p.,31.9%
same,Percent reduction at 2nd measurement,[1]; 500 mg/kg i.p.,76.9%
same,"mobility, percent of the baseline values",[1]; 500 mg/kg i.p.,23.1%
same,Mean number of crossings (± SE),"[1]; after treatment, 250 mg/kg i.p.",84.1 ± 15
same,Mean number of crossings (± SE),"[1]; after treatment, 500 mg/kg i.p.",50.5 ± 5
same,Mean number of crossings (± SE),"[1]; before treatment, 250 mg/kg i.p. group",261.5 ± 25
same,Mean number of crossings (± SE),"[1]; before treatment, 500 mg/kg i.p. group",229 ± 15
same,Mean number of crossings (± SE) in 10 minutes,[2],836 ± 100
same,arterial blood pressure,[3],No treatment caused any significant change
same,"somnolence, daily torpor or motive conceptual slowness",[4],"in no case somnolence, daily torpor or motive conceptual slowness were observed; also recorded: without causing daily drowsiness or torpor"
same,disorders or difficulty in usual working activity,[4]; outpatients,No outpatient reported disorders or difficulty in carrying out their usual working activity
same,Number animals died,[5],0/8
same,Number animals with clonic convulsions,[5]; in parentheses number treated,8(8)
same,Number animals with tonic convulsions,[5]; in parentheses number treated,0(8)
